Assay results published in patent publication US9988355B2, “Form A of mesylate for nicotinamide derivatives and preparation method and application thereof” (SHANGHAI SUNTRONG BIOTECHNOLOGY CO., LTD., priority 2014, dated 2018).
Where a name gives a salt, the structure may show the parent alone.

How the values were obtained:
Assay type in all cases: physicochemical
[1] = Hygroscopicity determination by TGA after storage at room temperature, humidity 40%
Description: Embodiment 11. Hygroscopicity Determination of the Contrast Needles Shape Solid of Nicotinamide Derivatives Mesylate
The obtained compound referred in a Chinese patent CN101676267 was 180.2 g of white needle-like crystals (0.365 mol) with the molecular weight being 493.5. It can thus be seen that the contrast needles shape solid of nicotinamide derivatives mesylate was anhydrate. The white needles of nicotinamide derivatives mesylate were prepared according to the method of […], and a DSC-TGA pattern of the needles as shown in FIG. 2 was obtained. Wherein, the testing conditions of differential scanning calorimetry (DSC) were 10° C./min with range of 30-300° C., and TGA testing conditions were 10° C./min from room temperature to 350° C. A proper amount of the needle samples of nicotinamide derivatives mesylate were placed at the room temperature under the humidity condition of 40%, and TGA detection was conducted on the solid respectively at the time intervals of 24 hours, 48 hours and 72 hours.

[2] = Solubility comparison of different crystal forms in water and ethanol
Excerpt: Embodiment 15. Solubility Comparison of Different Crystal Forms
The form A of mesylate for niacinamide derivatives prepared according to the method of the embodiment 4 and the needle solid of nicotinamide derivatives mesylate prepared according to the method of the embodiment 10 were respectively dissolved in water and ethanol, and solubility results were shown in Table 1.

[3] = Stability comparison of different crystal forms determined by HPLC, 6 months
Description: Embodiment 16. Stability Comparison of Different Crystal Forms Determined by HPLC
The form A of mesylate for niacinamide derivatives prepared according to the method of the embodiment 4 and the mesylate needles of nicotinamide derivatives prepared according to the method of the embodiment 10 were respectively put in the environment with light, high humidity (relative humidity (RH) is 90%), room temperature and high temperature (60° C.) for 6 months, the contents of related substances of the sample were determined by adopting HPLC, and examination results were shown in Table 2. HPLC testing conditions: chromatographic column Venusil MP-C18 (4.6 mm×250 mm, 5 μm, 100 Å); Mobile phase A: 0.1% acetum, B: acetonitrile, gradient conditions (0 min, 95% A; 20 min, 5% A; 25 min, 5% A; 30 min, 95% A); Detection wavelength 254 nm; Flowing speed 1 ml/min; Column temperature 30° C.; Sample amount 20 μl.

[4] = Stability comparison of different crystal forms by solid-state representation means (XRPD), 6 months
Description: Embodiment 17. Stability Comparison of Different Crystal Forms Determined by Adopting Solid-State Representation Means
The form A of mesylate for niacinamide derivatives prepared according to the method of the embodiment 4 and the needles solid of nicotinamide derivatives mesylate prepared according to the method of the embodiment 10 were respectively put in the environment with light, high humidity (relative humidity (RH) is 90%), room temperature and high temperature (60° C.) for 6 months, XRPD determination was performed by adopting a solid-state representation means, and examination results were shown in Table 3.

[5] = High-temperature, high-humidity and light stability of the crystal form, XRPD after 5 days
Description: Embodiment 14. Determination of High-Temperature Stability, High-Humidity Stability and Light Stability of the Mesylate Crystal Form A of Nicotinamide Derivatives of the Present Invention
The mesylate crystal form A of nicotinamide derivatives prepared according to the method of the embodiment 4 was tested.
(1) High-Temperature Stability
(2) High-Humidity Stability

Structure (SMILES)	Hygroscopicity (conclusion in words) ([1]; 24-72 hours)	TGA weight loss after storage under humidity ([1]; 24 hours) [%]	TGA weight loss after storage under humidity ([1]; 48 hours) [%]	TGA weight loss after storage under humidity ([1]; 72 hours) [%]	Water solubility [2]	Contents of related substances of the sample by HPLC ([3]; 60° C. for 6 months) [%]	Contents of related substances of the sample by HPLC ([3]; Illuminating for 6 months) [%]	Contents of related substances of the sample by HPLC ([3]; RH90% for 6 months) [%]	Contents of related substances of the sample by HPLC ([3]; Room temperature for 6 months) [%]	Crystal form after storage (XRPD) ([4]; 60° C. for 6 months)	Crystal form after storage (XRPD) ([4]; Illuminating for 6 months)	High-humidity stability (XRPD compared with FIG. 1) ([5]; airtight container, humidity 92.5%)	High-temperature stability (XRPD compared with FIG. 1) ([5]; airtight drying oven of 60° C.)	Light stability (XRPD compared with FIG. 1) ([5]; transparent container, light 4500 lux)	Crystal form after storage (XRPD) ([4]; RH90% for 6 months)	Crystal form after storage (XRPD) ([4]; Room temperature for 6 months)
N#CC1(c2ccc(NC(=O)c3cccnc3NCc3ccncc3)cc2)CCCC1 [Contrast needles, N-[4-(1-cyanocyclopentyl)phenyl]-2-(4-pyridylmethyl) amidogen-3-pyridineethanamine]	a certain hygroscopicity	3.311	3.191	3.332	Insoluble	98.2	99.4	98.8	99.2	Unchanged	Unchanged					
N#CC1(c2ccc(NC(=O)c3cccnc3NCc3ccncc3)cc2)CCCC1 [The form A of mesylate for niacinamide derivatives of the pr] [N-[4-(1-cyanocyclopentyl)phenyl]-2-(4-pyridylmethyl) amidogen-3-pyridineethanamine]					Insoluble	98.1	99.6	98.5	99.4	Unchanged	Unchanged	good stability in a high-humidity environment	good high-temperature stability	good light stability	Unchanged	Unchanged
